Measurements as given in ChEMBL document CHEMBL5331076, “Streptogramin A derivatives as mitochondrial translation inhibitors to suppress glioblastoma stem cell growth” (Eur J Med Chem, 2023).
The source made the active and inactive calls. The calls are words filed in the database; no cut-off is given here.

Key:
[1] = system: COMI; test: Inhibition of mitochondrial translation in human COMI cells assessed as decrease in ND3 expression level at 0.5 to 5 uM incubated for 48 hrs by immunoblotting analysis; type: functional, cell-based; settings: dose 0.5-5 µM
[2] = system: COMI; test: Inhibition of mitochondrial translation in human COMI cells assessed as increase in COX4 expression level at 0.5 to 5 uM incubated for 48 hrs by immunoblotting analysis; type: functional, cell-based; settings: dose 0.5-5 µM
[3] = system: COMI; test: Inhibition of mitochondrial translation in human COMI cells assessed as decrease in COX1 expression level at 0.5 to 5 uM incubated for 48 hrs by immunoblotting analysis; type: functional, cell-based; settings: dose 0.5-5 µM
[4] = system: COMI; test: Inhibition of mitochondrial translation in human COMI cells assessed as decrease in COX2 expression level at 0.5 to 5 uM incubated for 48 hrs by immunoblotting analysis; type: functional, cell-based; settings: dose 0.5-5 µM
[5] = system: COMI; test: Growth inhibition of human COMI cells incubated for 48 hrs in the presence of quinupristin by Hoechst 33342/PI staining based analysis; type: functional
[6] = system: COMI; test: Growth inhibition of human COMI cells incubated for 48 hrs by Hoechst 33342/PI staining based analysis; type: functional
[7] = system: COMI; test: Inhibition of mitochondrial translation in human COMI cells assessed as decrease in ND3 expression level incubated for 48 hrs by immunoblotting analysis; type: functional, cell-based
[8] = system: COMI; test: Inhibition of mitochondrial translation in human COMI cells assessed as decrease in COX2 expression level incubated for 48 hrs by immunoblotting analysis; type: functional, cell-based
[9] = system: COMI; test: Inhibition of mitochondrial translation in human COMI cells assessed as increase in COX4 expression level incubated for 48 hrs by immunoblotting analysis; type: functional, cell-based
[10] = system: COMI; test: Inhibition of mitochondrial translation in human COMI cells assessed as decrease in COX1 expression level incubated for 48 hrs by immunoblotting analysis; type: functional, cell-based
[11] = system: COMI; test: Inhibition of mitochondrial translation in human COMI cells assessed as decrease in COX2 expression level at >25 uM incubated for 48 hrs by immunoblotting analysis; type: functional, cell-based
[12] = system: COMI; test: Inhibition of mitochondrial translation in human COMI cells assessed as increase in COX4 expression level at >25 uM incubated for 48 hrs by immunoblotting analysis; type: functional, cell-based
[13] = system: COMI; test: Inhibition of mitochondrial translation in human COMI cells assessed as decrease in ND3 expression level at >25 uM incubated for 48 hrs by immunoblotting analysis; type: functional, cell-based
[14] = system: COMI; test: Inhibition of mitochondrial translation in human COMI cells assessed as decrease in COX1 expression level at >25 uM incubated for 48 hrs by immunoblotting analysis; type: functional, cell-based
[15] = system: COMI; test: Growth inhibition of human COMI cells; type: functional
[16] = system: VIPI; test: Growth inhibition of human VIPI cells; type: functional

Structure (SMILES)	GI50 [5] [µM]	GI50 [6] [µM]	inhibition [7]	inhibition [8]	inhibition [9]	inhibition [10]	further results
CC1=C\[C@@H](O)C[C@@H](F)Cc2nc(co2)C(=O)N2CCC=C2C(=O)O[C@H](C(C)C)[C@H](C)/C=C/C(=O)NC\C=C\1	5.42	4.82					inhibition [1]: Active; inhibition [2]: Active; inhibition [3]: Active; inhibition [4]: Active
CC1=C\[C@@H](O)C[C@@H](O)Cc2nc(co2)C(=O)N2CCC=C2C(=O)O[C@H](C(C)C)[C@H](C)/C=C/C(=O)NC\C=C\1	5.28	21.7	Active	Active	Active	Active	
CCN(CC)CCS[C@@H]1CCN2C(=O)c3coc(n3)CC(=O)C[C@H](O)/C=C(C)/C=C/CNC(=O)/C=C/[C@@H](C)[C@@H](C(C)C)OC(=O)[C@@H]12	8	7.02					
CCN(CC)CCOC1CCN2C(=O)c3coc(n3)C[C@H](O)C[C@H](O)/C=C(C)/C=C/CNC(=O)/C=C/[C@@H](C)[C@@H](C(C)C)OC(=O)C12 (some centres undefined)	14	85.3					inhibition [11]: Active; inhibition [12]: Active; inhibition [13]: Active; inhibition [14]: Active
CCN(CC)CCNC1CCN2C(=O)c3coc(n3)C[C@H](O)C[C@H](O)/C=C(C)/C=C/CNC(=O)/C=C/[C@@H](C)[C@@H](C(C)C)OC(=O)C12 (some centres undefined)	16.9	> 100					inhibition [11]: Active; inhibition [12]: Active; inhibition [13]: Active; inhibition [14]: Active
CCN(CC)CCS(=O)(=O)[C@@H]1CCN2C(=O)c3coc(n3)C[C@H](NC)C[C@H](O)/C=C(C)/C=C/CNC(=O)/C=C/[C@@H](C)[C@@H](C(C)C)OC(=O)[C@@H]12	4.85	14.2					inhibition [1]: inactive; inhibition [2]: inactive; inhibition [3]: inactive; inhibition [4]: inactive
CCN(CC)CCS(=O)(=O)[C@@H]1CCN2C(=O)c3coc(n3)C[C@@H](F)C[C@H](O)/C=C(C)/C=C/CNC(=O)/C=C/[C@@H](C)[C@@H](C(C)C)OC(=O)[C@@H]12	8.37	20.5	Active	Active	Active	Active	
CN[C@H]1Cc2nc(co2)C(=O)N2CCC=C2C(=O)O[C@H](C(C)C)[C@H](C)/C=C/C(=O)NC/C=C/C(C)=C/[C@@H](O)C1	6.57	19.4					inhibition [1]: inactive; inhibition [2]: inactive; inhibition [3]: inactive; inhibition [4]: inactive
CC1=C\[C@@H](O)C[C@@H](F)Cc2nc(co2)C(=O)N2CCC[C@@H]2C(=O)O[C@H](C(C)C)[C@H](C)/C=C/C(=O)NC\C=C\1	5.83	7.37					inhibition [1]: Active; inhibition [2]: Active; inhibition [3]: Active; inhibition [4]: Active
CCN(CC)CCS(=O)(=O)[C@@H]1CCN2C(=O)c3coc(n3)C[C@H](O)C[C@H](O)/C=C(C)/C=C/CNC(=O)/C=C/[C@@H](C)[C@@H](C(C)C)OC(=O)[C@@H]12	7.05	37.5	Active	Active	Active	Active	
CC1=C\[C@@H](O)CC(=O)Cc2nc(co2)C(=O)N2CCC=C2C(=O)O[C@H](C(C)C)[C@H](C)/C=C/C(=O)NC\C=C\1 [VIRGINIAMYCIN FACTOR M1]	7.25	17.1					
CC1=CC2CNC(=O)/C=C/[C@@H](C)[C@@H](C(C)C)OC(=O)C3=CCCN3C(=O)c3coc(n3)CC(=O)C[C@H](O)C1C1C(=O)OC(=O)C21 (some centres undefined)	19.6	> 100	inactive	inactive	inactive	inactive	
CC1=CC2CNC(=O)/C=C/[C@@H](C)[C@@H](C(C)C)OC(=O)C3=CCCN3C(=O)c3coc(n3)CC(=O)C[C@H](O)C1C1C(=O)NC(=O)C21 (some centres undefined)	16.4	> 100	inactive	inactive	inactive	inactive	
CC1=C\[C@@H](O)C[C@H](F)Cc2nc(co2)C(=O)N2CCC=C2C(=O)O[C@H](C(C)C)[C@H](C)/C=C/C(=O)NC\C=C\1	12.3	36.1	Active	Active	Active	Active	
CCN(CC)CCS(=O)(=O)[C@@H]1CCN2C(=O)c3coc(n3)CC(=O)C[C@H](O)C3C(C)=CC(CNC(=O)/C=C/[C@@H](C)[C@@H](C(C)C)OC(=O)[C@@H]12)C1C(=O)NC(=O)C13 (some centres undefined)	14.5	> 100	inactive	inactive	inactive	inactive	
Cn1nnc2c(C(N)=O)ncn2c1=O [TEMOZOLOMIDE]							GI50 [15]: 96.5 µM; GI50 [16]: 338 µM
CCN(CC)CCS(=O)(=O)[C@@H]1CCN2C(=O)c3coc(n3)CC(=O)C[C@H](O)C3C(C)=CC(CNC(=O)/C=C/[C@@H](C)[C@@H](C(C)C)OC(=O)[C@@H]12)C1C(=O)OC(=O)C13 (some centres undefined)	14.8	> 100	inactive	inactive	inactive	inactive	
CC1=C\C=C\C(=O)Cc2nc(co2)C(=O)N2CCC=C2C(=O)O[C@H](C(C)C)[C@H](C)/C=C/C(=O)NC\C=C\1	15.6	20.5					
CN[C@@H]1Cc2nc(co2)C(=O)N2CCC=C2C(=O)O[C@H](C(C)C)[C@H](C)/C=C/C(=O)NC/C=C/C(C)=C/[C@@H](O)C1	1.5	1.16					inhibition [1]: inactive; inhibition [2]: inactive; inhibition [3]: inactive; inhibition [4]: inactive
CC1=C\[C@@H](O)C[C@H](O)Cc2nc(co2)C(=O)N2CCC=C2C(=O)O[C@H](C(C)C)[C@H](C)/C=C/C(=O)NC\C=C\1	8.74	52.5	Active	Active	Active	Active	
CCN(CC)CCS(=O)(=O)[C@@H]1CCN2C(=O)c3coc(n3)C[C@@H](O)C[C@H](O)/C=C(C)/C=C/CNC(=O)/C=C/[C@@H](C)[C@@H](C(C)C)OC(=O)[C@@H]12	5.17	18.8	Active	Active	Active	Active	
CCN(CC)CCS(=O)(=O)[C@@H]1CCN2C(=O)c3coc(n3)C[C@@H](NC)C[C@H](O)/C=C(C)/C=C/CNC(=O)/C=C/[C@@H](C)[C@@H](C(C)C)OC(=O)[C@@H]12	1.32	1.56					inhibition [1]: inactive; inhibition [2]: inactive; inhibition [3]: inactive; inhibition [4]: inactive
CCN(CC)CCS(=O)(=O)[C@@H]1CCN2C(=O)c3coc(n3)C[C@H](F)C[C@H](O)/C=C(C)/C=C/CNC(=O)/C=C/[C@@H](C)[C@@H](C(C)C)OC(=O)[C@@H]12	5.71	6.73					inhibition [1]: Active; inhibition [2]: Active; inhibition [3]: Active; inhibition [4]: Active
CCN(CC)CCS(=O)(=O)[C@@H]1CCN2C(=O)c3coc(n3)CC(=O)/C=C/C=C(C)/C=C/CNC(=O)/C=C/[C@@H](C)[C@@H](C(C)C)OC(=O)[C@@H]12	9.9	10.9					
